≈ marks a conversion by molar mass, not a printed value. Where a name gives a salt, the structure may show the parent alone. Read-outs that look alike come from different tables or passages of the source.
Legend:
[1] = Permeation rate through polyurethane; format: physicochemical
Source text: (§1) In the examples, the solubilities of free zwitterion and enhanced solubilities of various salts thereof are reported in various degrees in the following solvents: water, ethanol, octanol, chloroform and human stratum corneum. Permeation rates are also shown for these zwitterionic compounds and enhanced fluxes of the salts thereof through materials including polyurethane. While such materials are impractical for transdermal devices for free zwitterions, these materials are practical for the transdermal delivery of salts of zwitterions. The solubility in water is given as a model of polar solvents, while the octanol and chloroform are given as models for skin lipids. The critical factor for inclusion of a salt within the invention is that relative to its non salt zwitterion parent compound, the salt form of the invention has a greater solubility in both polar and lipid skin models.
(§2) Average of values measured in triplicate.

[2] = Solubility in water at 25 deg. C.; format: physicochemical; details: average of triplicate
Source text: (§3) The solubility in water is given as a model of polar solvents, while the octanol and chloroform are given as models for skin lipids.

[3] = Solubility in chloroform at 25 deg. C. (model of skin lipids); format: physicochemical
Source text: as §1, §2

[4] = Solubility in ethanol at 25 deg. C.; format: physicochemical; details: average of triplicate
[5] = Solubility in human stratum corneum; format: physicochemical; details: average of triplicate
Source text: as §1, §2

[6] = Permeation rate through human epidermis; format: in vitro ADME
Source text: as §1, §2

[7] = Solubility in octanol at 25 deg. C. (model of skin lipids); format: physicochemical; details: average of triplicate
Source text: as §3

[8] = at 25 deg. C., average of triplicate

SMILES	Permeation rate through polyurethane ([1]; average of triplicate) [ug/cm 2/hr]	R.E. (relative enhancement) of permeation rate through polyurethane ([1]; relative to free zwitterion)	Solubility in water [2] [mg/mL]	Solubility in chloroform [3, 8] [µg/mL]	Solubility in ethanol [4] [mg/mL]	Solubility in octanol [7] [µg/mL]	Permeation rate through polyurethane [1] [ug/cm 2/hr]	R.E. (relative enhancement) of permeation rate through polyurethane [1]	further results
NCC(CC(=O)O)c1ccc(Cl)cc1 (stereo not drawn) [Bac. ethane sulfonate]	211.9	39.83	38.8898	11.17	237.181				
NCC(CC(=O)O)c1ccc(Cl)cc1 (stereo not drawn) [Bac. fumarate]	11.4	2.14	1.1875	0.627					
O=C(O)CN1C(=O)[C@@H](N[C@@H](CCc2ccccc2)C(=O)O)CCc2ccccc21 [Benazeprilat (CGS14831), Benazeprilat, reference compound]					0.12089 (≈ 0.305 mM)		0.311	1.00	Permeation rate through human epidermis [6]: 0.1409 ug/cm 2/hr; R.E. (relative enhancement) of permeation rate through human epidermis [6]: 1.00
O=C(O)CN1C(=O)[C@@H](N[C@@H](CCc2ccccc2)C(=O)O)CCc2ccccc21 [CGS 14831. dilithium salt]					27.97561		47.76	153.57	Permeation rate through human epidermis [6]: 8.95 ug/cm 2/hr; R.E. (relative enhancement) of permeation rate through human epidermis [6]: 63.52
O=C(O)CN1C(=O)[C@@H](N[C@@H](CCc2ccccc2)C(=O)O)CCc2ccccc21 [CGS 14831. dipotassium salt]					34.19351		75.01	241.19	Permeation rate through human epidermis [6]: 20.56 ug/cm 2/hr; R.E. (relative enhancement) of permeation rate through human epidermis [6]: 145.92
NCCCC[C@H](N[C@H]1CCc2ccccc2N(CC(=O)O)C1=O)C(=O)O [CGS 16617, reference compound]			491.5 (≈ 1350 mM)		0.1907 (≈ 0.525 mM)	23.36 (≈ 0.0643 mM)	0.538	1.00	
NCCCC[C@H](N[C@H]1CCc2ccccc2N(CC(=O)O)C1=O)C(=O)O [CGS 16617. dihydrobromide]			1423		45.0269	506.7	65.31	121.39	
NCCCC[C@H](N[C@H]1CCc2ccccc2N(CC(=O)O)C1=O)C(=O)O [CGS 16617. dihydrochloride]			1127.8		1.89075	87.8	13.34	24.80	
NCCCC[C@H](N[C@H]1CCc2ccccc2N(CC(=O)O)C1=O)C(=O)O [CGS 16617. monomaleate]			623.9		0.24882	13.96	3.47	6.45	
NC(Cc1ccccc1)C(=O)O (stereo not drawn) [Phe. hydrochloride]	1516.23	789.70	959.6908	58.26	107.1459	40231.8			Permeation rate through human epidermis ([6]; average of triplicate): 77.53 ug/cm 2/hr; R.E. (relative enhancement) of permeation rate through human epidermis ([6]; relative to free zwitterion): 76.01
N[C@@H](Cc1ccccc1)C(=O)O [Phenylalanine (Phe), Phenylalanine, reference compound]	1.92	1.00							solubility ([2]; water): 25.3 mg/mL (≈ 153 mM); solubility ([3]; chloroform, organic solvent or mixture, at 25 deg. C., average of triplicate): 0.21 µg/mL (≈ 0.00127 mM); solubility ([4]; ethanol, organic solvent or mixture): 234 µg/mL (≈ 1.42 mM); Permeation rate through human epidermis ([6]; average of triplicate): 1.02 ug/cm 2/hr; R.E. (relative enhancement) of permeation rate through human epidermis ([6]; relative to free zwitterion): 1.00; solubility ([7]; octanol, organic solvent or mixture): 12.3 µg/mL (≈ 0.0745 mM)

Now from value to compound, other results behind:

Permeation rate through polyurethane ([1]; average of triplicate) [ug/cm 2/hr]	R.E. (relative enhancement) of permeation rate through polyurethane ([1]; relative to free zwitterion)	Solubility in water [2] [mg/mL]	Solubility in chloroform [3, 8] [µg/mL]	Solubility in ethanol [4] [mg/mL]	Solubility in octanol [7] [µg/mL]	Permeation rate through polyurethane [1] [ug/cm 2/hr]	R.E. (relative enhancement) of permeation rate through polyurethane [1]	SMILES	further results
738.9	138.89	351.9468	13.7	129.5697	477.05			NCC(CC(=O)O)c1ccc(Cl)cc1 (stereo not drawn) [Bac. hydrobromide]	Solubility in human stratum corneum [5]: 292.2 µg/mL; Permeation rate through human epidermis ([6]; average of triplicate): 25.49 ug/cm 2/hr; R.E. (relative enhancement) of permeation rate through human epidermis ([6]; relative to free zwitterion): 216.02
273.7	51.45	244.6225	5.34	37.4989	324.3			NCC(CC(=O)O)c1ccc(Cl)cc1 (stereo not drawn) [Bac. hydrochloride]	Solubility in human stratum corneum [5]: 214.69 µg/mL
3.45	0.65	1.3962 (≈ 6.53 mM)	0.104 (≈ 0.000487 mM)	1.79088 (≈ 8.38 mM)				NCC(CC(=O)O)c1ccc(Cl)cc1 (stereo not drawn) [Bac. hydrofluoride]	Solubility in human stratum corneum [5]: 22.15 µg/mL (≈ 0.104 mM)
128.3	24.12	21.7191	6.93	57.8373				NCC(CC(=O)O)c1ccc(Cl)cc1 (stereo not drawn) [Bac. lithium salt]	
19.13	3.59	1.2923	0.026					NCC(CC(=O)O)c1ccc(Cl)cc1 (stereo not drawn) [Bac. maleate]	
287.9	54.12	8.8269	0.087	170.84				NCC(CC(=O)O)c1ccc(Cl)cc1 (stereo not drawn) [Bac. methane sulfonate, baclofen methane sulfonate]	solubility in chloroform versus free zwitterion ([3]; in words, exception to salt being more soluble): one exception
220.2	41.30		37.4	61.6503	576.4			NCC(CC(=O)O)c1ccc(Cl)cc1 (stereo not drawn) [Bac. pentane sulfonate]	
587.8	110.49							NCC(CC(=O)O)c1ccc(Cl)cc1 (stereo not drawn) [Bac. potassium salt]	
233.9	43.97	24.4257	8.74	107.317				NCC(CC(=O)O)c1ccc(Cl)cc1 (stereo not drawn) [Bac. propane sulfonate]	
605.3	113.78	21.3797	3.47	529.056				NCC(CC(=O)O)c1ccc(Cl)cc1 (stereo not drawn) [Bac. sodium salt]	
5.32	1.00	6.8287 (≈ 32 mM)	0.22 (≈ 0.00103 mM)	1.1441 (≈ 5.35 mM)	22.2 (≈ 0.104 mM)			NCC(CC(=O)O)c1ccc(Cl)cc1 (stereo not drawn) [Baclofen (Bac), Baclofen, reference compound]	Solubility in human stratum corneum [5]: 3.11 µg/mL (≈ 0.0146 mM); Permeation rate through human epidermis ([6]; average of triplicate): 0.118 ug/cm 2/hr; R.E. (relative enhancement) of permeation rate through human epidermis ([6]; relative to free zwitterion): 1.00

From patent US5073539A, “Transdermal administration of zwitterionic drugs” (Ciba-Geigy Corporation, priority 1990, dated 1991)
